Source: patent US9365588B2, “Benzoxazines as modulators of ion channels” (Vertex Pharmaceuticals Incorporated, priority 2011, dated 2016)

Molecular target: human NaV 1.7 (Homo sapiens, UniProt Q15858)
Assay: E-VIPR optical membrane potential assay with electrical stimulation
Assay type: cell-based
Details: sodium channel inhibition; read-out: Binned Activity Data (IC50)
How it was run: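 Membrane-potential read-out: background-subtracted 460 nm/580 nm ratio during a 9 s current-controlled stimulus, 400 Hz scan. Before stimulation, NaV1.7-HEK cells carried coumarin/oxonol dye and compound (final DMSO 0.625%) for 20–35 min at room temperature; tetracaine 125 μM served as positive control.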

Chain of human NaV 1.7 (Q15858 whole entry): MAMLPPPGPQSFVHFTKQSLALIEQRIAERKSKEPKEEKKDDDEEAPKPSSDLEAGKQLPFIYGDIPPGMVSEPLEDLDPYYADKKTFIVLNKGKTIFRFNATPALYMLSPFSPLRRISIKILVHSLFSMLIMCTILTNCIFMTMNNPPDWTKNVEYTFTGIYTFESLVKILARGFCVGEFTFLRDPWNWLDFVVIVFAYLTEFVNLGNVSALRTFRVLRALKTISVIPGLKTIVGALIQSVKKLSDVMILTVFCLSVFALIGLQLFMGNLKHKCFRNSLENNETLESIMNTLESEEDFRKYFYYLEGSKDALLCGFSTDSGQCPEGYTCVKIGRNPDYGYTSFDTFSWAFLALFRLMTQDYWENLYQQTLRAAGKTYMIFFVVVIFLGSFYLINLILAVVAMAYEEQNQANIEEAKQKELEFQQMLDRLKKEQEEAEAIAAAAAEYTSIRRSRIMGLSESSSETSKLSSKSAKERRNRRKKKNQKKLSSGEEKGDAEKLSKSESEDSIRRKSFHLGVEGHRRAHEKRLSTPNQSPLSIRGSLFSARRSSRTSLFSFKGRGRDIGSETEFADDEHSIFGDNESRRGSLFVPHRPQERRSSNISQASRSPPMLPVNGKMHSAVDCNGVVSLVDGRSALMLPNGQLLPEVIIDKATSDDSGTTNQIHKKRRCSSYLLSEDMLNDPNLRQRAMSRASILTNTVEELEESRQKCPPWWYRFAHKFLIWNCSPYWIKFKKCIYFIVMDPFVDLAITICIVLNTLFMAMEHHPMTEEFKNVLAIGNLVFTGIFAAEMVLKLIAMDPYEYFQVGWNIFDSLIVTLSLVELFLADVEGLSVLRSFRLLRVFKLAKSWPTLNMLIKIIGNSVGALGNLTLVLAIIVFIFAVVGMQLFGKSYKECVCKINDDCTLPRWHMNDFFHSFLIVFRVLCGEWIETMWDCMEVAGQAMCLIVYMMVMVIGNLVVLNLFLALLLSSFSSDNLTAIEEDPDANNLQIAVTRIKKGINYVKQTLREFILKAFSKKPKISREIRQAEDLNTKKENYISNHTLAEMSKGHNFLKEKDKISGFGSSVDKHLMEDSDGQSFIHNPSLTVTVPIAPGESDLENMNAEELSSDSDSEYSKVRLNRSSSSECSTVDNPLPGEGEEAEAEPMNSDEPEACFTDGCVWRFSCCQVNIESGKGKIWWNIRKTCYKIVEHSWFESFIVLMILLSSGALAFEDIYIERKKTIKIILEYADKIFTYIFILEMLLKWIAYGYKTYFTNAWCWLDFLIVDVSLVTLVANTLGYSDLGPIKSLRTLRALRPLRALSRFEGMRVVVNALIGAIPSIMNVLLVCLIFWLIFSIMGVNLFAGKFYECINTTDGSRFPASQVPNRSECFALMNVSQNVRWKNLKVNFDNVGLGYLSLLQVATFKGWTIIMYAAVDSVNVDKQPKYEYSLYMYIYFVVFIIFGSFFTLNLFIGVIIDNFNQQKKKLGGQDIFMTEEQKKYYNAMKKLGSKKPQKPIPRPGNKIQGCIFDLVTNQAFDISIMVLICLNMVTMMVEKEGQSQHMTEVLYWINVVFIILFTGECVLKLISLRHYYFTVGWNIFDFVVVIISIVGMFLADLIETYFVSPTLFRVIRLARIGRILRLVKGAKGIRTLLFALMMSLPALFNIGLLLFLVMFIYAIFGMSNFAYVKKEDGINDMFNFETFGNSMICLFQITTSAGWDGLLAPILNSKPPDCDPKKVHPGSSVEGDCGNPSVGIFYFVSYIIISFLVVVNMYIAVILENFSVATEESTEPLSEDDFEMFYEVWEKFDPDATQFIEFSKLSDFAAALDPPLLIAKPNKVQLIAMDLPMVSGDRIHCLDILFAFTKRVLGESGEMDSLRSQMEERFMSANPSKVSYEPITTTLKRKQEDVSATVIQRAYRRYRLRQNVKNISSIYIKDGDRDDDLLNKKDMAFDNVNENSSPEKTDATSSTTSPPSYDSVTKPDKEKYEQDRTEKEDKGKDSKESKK

IC50 [nM] | SMILES
≤ 2000 | CCCOc1ccc(C(=O)N2CCC3(CC2)Oc2ccccc2-c2c3cnn2C)cc1C(F)(F)F [Compound 387]
≤ 2000 | Cn1cc2c(n1)-c1ccccc1OC21CCN(C(=O)c2cccc(F)c2OC(F)F)CC1 [Compound 388]
≤ 2000 | COc1ccc(C(=O)N2CCC3(CC2)Oc2cc(Cl)ccc2-n2c(C#N)ccc23)cc1C(F)(F)F [Compound 392]
≤ 2000 | CCc1ccc(C(=O)N2CCC3(CC2)Oc2ccccc2-n2cc(C)cc23)cc1OC [Compound 395]
≤ 2000 | COc1cc(C(=O)N2CCC3(CC2)Oc2ccccc2-c2c3cnn2C)ccc1O [Compound 396]
2000 to 5000 | COc1cc(C(=O)N2CCC3(CC2)Oc2ccccc2-n2c(C#N)ccc23)ccc1OC[C@H](O)CO [Compound 398]
≤ 2000 | COc1cc(C(=O)N2CCC3(CC2)Oc2ccccc2-n2cccc23)ccc1C(C)(C)OC [Compound 399]
≤ 2000 | C[C@@](O)(CO)c1ccc(C(=O)N2CCC3(CC2)Oc2ccccc2-n2c(C#N)ccc23)cc1 [Compound 406]
≤ 2000 | COc1cc(C(=O)N2CCC3(CC2)Oc2cc(Cl)ccc2-n2cccc23)ccc1OC[C@H](C)OC [Compound 407]
≤ 2000 | Cc1cc(C(=O)N2CCC3(CC2)Oc2ccccc2-n2c(C(F)(F)F)ccc23)ccc1S(=O)(=O)N(C)C [Compound 413]
≤ 2000 | Cc1cc(C(=O)N2CCC3(CC2)Oc2cccnc2-c2c3cnn2C)ccc1OC(C)C [Compound 414]
≤ 2000 | Cc1cc(C(=O)N2CCC3(CC2)Oc2ccccc2-n2cccc23)ccc1OC(C)C [Compound 415]
≤ 2000 | Cc1cc(C(=O)N2CCC3(CC2)Oc2cccc(F)c2-n2c(C#N)ccc23)ccc1OC(C)C [Compound 416]
≤ 2000 | COCCOc1ccc(C(=O)N2CCC3(CC2)Oc2ccccc2-c2c3cnn2C)cc1OC [Compound 420]
2000 to 5000 | Cn1ncc2c1-c1ccccc1OC21CCN(C(=O)c2ccc3c(c2)OC(C)(C)C3)CC1 [Compound 422]
> 5000 | Cn1cc2c(n1)-c1ccccc1OC21CCN(C(=O)c2ccc(C(C)(C)O)c(CO)c2)CC1 [Compound 425]
≤ 2000 | CC(C)Oc1ccccc1C(=O)N1CCC2(CC1)Oc1ccccc1-c1c2cnn1C [Compound 430]
≤ 2000 | COc1cc(Cl)ccc1C(=O)N1CCC2(CC1)Oc1cc(Cl)ccc1-n1cccc12 [Compound 434]
≤ 2000 | CC(C)CS(=O)(=O)c1ccc(C(=O)N2CCC3(CC2)Oc2ccccc2-n2c(C#N)ccc23)cc1 [Compound 436]
≤ 2000 | Cc1ccc2c(c1)OC1(CCN(C(=O)c3ccc(S(=O)(=O)C(C)C)cc3)CC1)c1ccc(C#N)n1-2 [Compound 440]
≤ 2000 | COc1cc(C(=O)N2CCC3(CC2)Oc2ccccc2-c2c3cnn2C)ccc1C1CC1 [Compound 442]
2000 to 5000 | CCc1ccc(C(=O)N2CCC3(CC2)Oc2cc(CN(C)C)ccc2-n2cccc23)cc1OC [Compound 454]
≤ 2000 | CC(C)Oc1ccc(C(=O)N2CCC3(CC2)Oc2ccccc2-c2c3cnn2C)cc1 [Compound 464]
≤ 2000 | O=C(c1cccnc1Oc1ccc(F)cc1)N1CCC2(CC1)Oc1ccccc1-n1c(C(F)(F)F)ccc12 [Compound 472]
≤ 2000 | COc1ccc(F)c(C(=O)N2CCC3(CC2)Oc2cc(Cl)ccc2-n2cccc23)c1 [Compound 475]
> 5000 | COc1ccc(C(=O)N2CCC3(CC2)Oc2cc(F)ccc2-n2c(C#N)ccc23)cc1C(F)(F)F [Compound 479]
≤ 2000 | COc1ccc2c(c1)-c1c(cnn1C)C1(CCN(C(=O)c3ccccc3OC(F)F)CC1)O2 [Compound 480]

Second part, the compound before the results:

SMILES | IC50 [nM]
COCCOc1ccc(C(=O)N2CCC3(CC2)Oc2ccccc2-c2c3cnn2CC(F)(F)F)cc1OC [Compound 391] | 2000 to 5000
Cc1nc2cccc(C(=O)N3CCC4(CC3)Oc3cc(Cl)ccc3-n3cccc34)c2o1 [Compound 393] | ≤ 2000
N#Cc1ccc2n1-c1ccccc1OC21CCN(C(=O)c2ccccc2C(F)F)CC1 [Compound 401] | ≤ 2000
CC(C)(C)S(=O)(=O)c1ccc(C(=O)N2CCC3(CC2)Oc2ccccc2-n2c3ccc2S(C)(=O)=O)cc1 [Compound 404] | ≤ 2000
Cn1ccc(C(=O)N2CCC3(CC2)Oc2ccccc2-n2cccc23)cc1=O [Compound 405] | > 5000
Cc1cc(C(=O)N2CCC3(CC2)Oc2ccccc2-n2c(C#N)ccc23)ccc1OC(C)(C)C(=O)O [Compound 408] | 2000 to 5000
O=C(c1ccccc1OC(F)F)N1CCC2(CC1)Oc1ccccc1-c1[nH]ncc12 [Compound 409] | > 5000
CCn1ncc2c1-c1ccccc1OC21CCN(C(=O)c2ccc(OC(C)C)c(C)c2)CC1 [Compound 410] | ≤ 2000
CN(C)CCOc1ccc(C(=O)N2CCC3(CC2)Oc2cc(F)ccc2-n2cccc23)cc1C(F)(F)F [Compound 411] | > 5000
COc1cc(C(=O)N2CCC3(CC2)Oc2cc(Cl)ccc2-n2cccc23)ccc1C(C)(C)CO [Compound 417] | ≤ 2000
Cn1ncc2c1-c1ccccc1OC21CCN(C(=O)c2ccc(C3(O)COC3)cc2)CC1 [Compound 418] | 2000 to 5000
CC(C)(C)c1ccc(C(=O)N2CCC3(CC2)Oc2ccccc2-n2cccc23)cc1C#N [Compound 419] | ≤ 2000
CC(C)CS(=O)(=O)c1ccc(C(=O)N2CCC3(CC2)Oc2ccccc2-c2c3cnn2C)cc1 [Compound 423] | ≤ 2000
CC(C)(O)c1ccc(C(=O)N2CCC3(CC2)Oc2ccccc2-n2c(C(F)(F)F)ccc23)cc1F [Compound 424] | ≤ 2000
Cc1cc(S(=O)(=O)C(C)C)ccc1C(=O)N1CCC2(CC1)Oc1ccccc1-n1c(C#N)ccc12 [Compound 426] | ≤ 2000
COc1cc(C(=O)N2CCC3(CC2)Oc2ccccc2-c2c3cnn2C)ccc1O[C@@H]1CCOC1 [Compound 427] | ≤ 2000
COc1cc(C(=O)N2CCC3(CC2)Oc2ccccc2-c2c3cnn2C)ccc1C(C)(C)C [Compound 429] | ≤ 2000
CC(C)S(=O)(=O)c1ccc(C(=O)N2CCC3(CC2)Oc2cc(CO)ccc2-n2c(C#N)ccc23)cc1 [Compound 431] | ≤ 2000
COc1ccc(C(=O)N2CCC3(CC2)Oc2ccccc2-c2c3cnn2C)cc1C [Compound 433] | ≤ 2000
COc1cc(C(=O)N2CCC3(CC2)Oc2ccc(F)cc2-c2nn(C)cc23)ccc1OC(C)C [Compound 435] | ≤ 2000
COc1cc(C(=O)N2CCC3(CC2)Oc2ccccc2-n2cccc23)ccc1O[C@@H]1CCC[C@H]1O [Compound 437] | ≤ 2000
COc1ccc(C(=O)N2CCC3(CC2)Oc2ccccc2-n2c(C(F)(F)F)ccc23)nc1 [Compound 438] | ≤ 2000
Cn1ncc2c1-c1ccccc1OC21CCN(C(=O)c2cccc3nccnc23)CC1 [Compound 439] | ≤ 2000
Cc1cc(C(=O)N2CCC3(CC2)Oc2ccccc2-n2cccc23)ccc1C(C)(C)O [Compound 443] | ≤ 2000

SMILES | IC50 [nM]
Cn1ncc2c1-c1ccccc1OC21CCN(C(=O)c2ccc3[nH]ncc3c2)CC1 [Compound 444] | > 5000
CCOc1cccc(C(=O)N2CCC3(CC2)Oc2ccccc2-n2c3ccc2S(C)(=O)=O)c1F [Compound 445] | 2000 to 5000
CCn1ncc2c1-c1cc(F)ccc1OC21CCN(C(=O)c2ccccc2OC(F)F)CC1 [Compound 446] | ≤ 2000
Cc1cc(C(C)(C)O)ccc1C(=O)N1CCC2(CC1)Oc1ccccc1-c1c2cnn1C [Compound 447] | ≤ 2000
CN(C)C(=O)c1ccccc1C(=O)N1CCC2(CC1)Oc1ccccc1-c1c2cnn1C [Compound 448] | 2000 to 5000
COC[C@@H](C)Oc1ccc(C(=O)N2CCC3(CC2)Oc2ccccc2-n2cccc23)cc1OC [Compound 449] | ≤ 2000
Cn1ncc2c1-c1ccccc1OC21CCN(C(=O)c2ccccc2OC(F)(F)F)CC1 [Compound 452] | ≤ 2000
Cc1cc(C(=O)N2CCC3(CC2)Oc2cc(Cl)ccc2-n2cccc23)ccc1C#N [Compound 453] | ≤ 2000
CC(C)(O)c1ccc(C(=O)N2CCC3(CC2)Oc2ccccc2-n2c(C(F)(F)F)ccc23)cn1 [Compound 455] | > 5000
CCS(=O)(=O)c1ccc(C(=O)N2CCC3(CC2)Oc2ccccc2-n2c(C(F)(F)F)ccc23)cc1 [Compound 456] | ≤ 2000
COc1cccc2c(C(=O)N3CCC4(CC3)Oc3ccccc3-c3c4cnn3C)c[nH]c12 [Compound 460] | ≤ 2000
Cc1cc(C(=O)N2CCC3(CC2)Oc2ccccc2-n2c(C#N)ccc23)ccc1OCC(=O)O [Compound 462] | 2000 to 5000
COc1cccc2[nH]cc(C(=O)N3CCC4(CC3)Oc3ccccc3-c3c4cnn3C)c12 [Compound 463] | ≤ 2000
COc1cc(C)ccc1C(=O)N1CCC2(CC1)Oc1ccccc1-c1c2cnn1C [Compound 465] | ≤ 2000
COc1cc(C(=O)N2CCC3(CC2)Oc2ccccc2-n2cccc23)ccc1OCCCO [Compound 466] | ≤ 2000
Cn1ncc2c1-c1ccc(F)cc1OC21CCN(C(=O)c2ccccc2OC(F)(F)F)CC1 [Compound 468] | ≤ 2000
COCCOc1ccc(C(=O)N2CCC3(CC2)Oc2ccccc2-c2c3cnn2CCOC)cc1OC [Compound 469] | 2000 to 5000
COc1ccc(C(=O)N2CCC3(CC2)Oc2ccccc2-c2c3cnn2C)c(O)c1 [Compound 470] | 2000 to 5000
Cn1ncc2c1-c1ccccc1OC21CCN(C(=O)c2ccc(CC(C)(C)O)cc2)CC1 [Compound 473] | ≤ 2000
COc1cc(OC)c(C(=O)N2CCC3(CC2)Oc2ccccc2-n2cccc23)cc1CO [Compound 474] | 2000 to 5000
COc1ccc(F)cc1C(=O)N1CCC2(CC1)Oc1ccccc1-c1c2cnn1C [Compound 476] | ≤ 2000
COc1ccc(C(=O)N2CCC3(CC2)Oc2ccccc2-n2cccc23)cc1C(F)(F)F [Compound 477] | ≤ 2000
CCOc1cccc(C(=O)N2CCC3(CC2)Oc2cc(Cl)ccc2-n2cccc23)c1 [Compound 478] | ≤ 2000
CC(C)(C)S(=O)(=O)c1ccc(C(=O)N2CCC3(CC2)Oc2ccccc2-n2c(C(F)(F)F)ccc23)cc1 [Compound 483] | ≤ 2000
